# Experimental data from patent US20240246960A1 (adMare Therapeutics Society, priority 2021, published 2024).
# Molecular target: T1, DNA-PK phosphorylation at Serine 2056 (Homo sapiens, UniProt P78527)
# T1 construct: host or cells: FaDu
# Experiment: Cellular Assay for Inhibition of DNA-PK Phosphorylation at Serine 2056 (FaDu cells, neocarzinostatin, sandwich ELISA)
# Format: cell-based
# Conditions: Table 3
# Experimental: FaDu cells were purchased from ATCC and maintained in MEM alpha medium (Life Technologies, cat. no. 12561) supplemented with 10% fetal bovine serum, and 1% GlutaMAX at 37° C. supplemented with 5% CO2. 50,000 cells were seeded to each well of a 96-well cell culture plate in 50 μL of culture medium and incubated for 16-24 hours. Three-fold serially diluted compounds were prepared in DMSO. Culture media was used to prepare compound treatments to 0.3% DMSO (dimethyl sulphoxide) content. Compound treatments were added to the cells for 1 hour prior incubation, followed by the addition of neocarzinostatin in fresh culture medium to 1 μg/mL final concentration for an additional 2 hours incubation to induce DNA DSBs (double-strand breaks). DMSO controls were incubated with fresh culture medium alone for the additional two hours incubation. The cells were then lysed and frozen at −20° C. Cell lysates were thawed on wet ice and protein concentrations quantified by BCA Protein Assay (Thermo # 23225). Lysis buffer was used to normalize lysates by protein content and all lysates were then investigated by sandwich ELISA by means of DNA-PK-specific antibodies (Abcam ab44815: total DNA-PK; ab124918: phosphoserine-2056 DNA-PK) in sandwich ELISA format on the MSD S600MM platform (MesoScale Discovery). % inhibition was calculated for all data points: =1−(DATA_PT−AVERAGE(DMSO controls))/(AVERAGE(NCS controls)−AVERAGE(DMSO controls)). Logarithm of the molar concentration of compound was plotted against percent inhibition to calculate IC50 values, with curve fit settings for data fit to log(inhibitor) vs. normalized response—Variable slope using curve fit software (GraphPad Prism).
row,IC50,SMILES
1,< 0.1 µM,CNC(=O)c1ccnc(N[C@H]2CC[C@@H](Oc3nc(N4CCOCC4)cc4ncc(NS(C)(=O)=O)cc34)CC2)n1
2,0.1 to 1 µM,"Cc1ccc(F)c(N[C@H]2CC[C@@H](Oc3nc(N4CCOCC4)cc4ncc(NS(C)(=O)=O)cc34)CC2)n1 [LFA1001, N-[5-[4-[(3-fluoro-6-methyl-2-pyridyl)amino]cyclohexoxy]-7-morpholino-1,6-naphthyridin-3-yl]methanesulfonamide]"
3,< 0.1 µM,"CS(=O)(=O)Nc1cnc2cc(N3CCOCC3)nc(O[C@H]3CC[C@@H](Nc4cccnc4)CC3)c2c1 [LFA1002, N-[7-morpholino-5-[4-(3-pyridylamino)cyclohexoxy]-1,6-naphthyridin-3-yl]methanesulfonamide]"
4,< 0.1 µM,"Cc1cccnc1N[C@H]1CC[C@@H](Oc2nc(N3CCOCC3)cc3ncc(NS(C)(=O)=O)cc23)CC1 [LFA1003, N-[5-[4-[(3-methyl-2-pyridyl)amino]cyclohexoxy]-7-morpholino-1,6-naphthyridin-3-yl]methanesulfonamide]"
5,< 0.1 µM,"CS(=O)(=O)Nc1cnc2cc(N3CCOCC3)nc(O[C@H]3CC[C@@H](Nc4ccc(F)cn4)CC3)c2c1 [LFA1004, N-[5-[4-[(5-fluoro-2-pyridyl)amino]cyclohexoxy]-7-morpholino-1,6-naphthyridin-3-yl]methanesulfonamide]"
6,< 0.1 µM,"COc1cccnc1N[C@H]1CC[C@@H](Oc2nc(N3CCOCC3)cc3ncc(NS(C)(=O)=O)cc23)CC1 [LFA1005, N-[5-[4-[(3-methoxy-2-pyridyl)amino]cyclohexoxy]-7-morpholino-1,6-naphthyridin-3-yl]methanesulfonamide]"
7,< 0.1 µM,"Cc1cccc(N[C@H]2CC[C@@H](Oc3nc(N4CCOCC4)cc4ncc(NS(C)(=O)=O)cc34)CC2)n1 [LFA1006, N-[5-[4-[(6-methyl-2-pyridyl)amino]cyclohexoxy]-7-morpholino-1,6-naphthyridin-3-yl]methanesulfonamide]"
8,< 0.1 µM,"CS(=O)(=O)Nc1cnc2cc(N3CCOCC3)nc(O[C@H]3CC[C@@H](Nc4ncccc4F)CC3)c2c1 [LFA1007, N-[5-[4-[(3-fluoro-2-pyridyl)amino]cyclohexoxy]-7-morpholino-1,6-naphthyridin-3-yl]methanesulfonamide]"
9,< 0.1 µM,"CS(=O)(=O)Nc1cnc2cc(N3CCOCC3)nc(O[C@H]3CC[C@@H](Nc4ncccc4C#N)CC3)c2c1 [LFA1008, N-[5-[4-[(3-cyano-2-pyridyl)amino]cyclohexoxy]-7-morpholino-1,6-naphthyridin-3-yl]methanesulfonamide]"
10,< 0.1 µM,"Cc1cnc(N[C@H]2CC[C@@H](Oc3nc(N4CCOCC4)cc4ncc(NS(C)(=O)=O)cc34)CC2)c(C)c1 [LFA1009, N-[5-[4-[(3,5-dimethyl-2-pyridyl)amino]cyclohexoxy]-7-morpholino-1,6-naphthyridin-3-yl]methanesulfonamide]"
11,0.1 to 1 µM,"COc1ccc(C)nc1N[C@H]1CC[C@@H](Oc2nc(N3CCOCC3)cc3ncc(NS(C)(=O)=O)cc23)CC1 [LFA1010, N-[5-[4-[(3-methoxy-6-methyl-2-pyridyl)amino]cyclohexoxy]-7-morpholino-1,6-naphthyridin-3-yl]methanesulfonamide]"
12,< 0.1 µM,"Cc1cnc(N[C@H]2CC[C@@H](Oc3nc(N4CCOCC4)cc4ncc(NS(C)(=O)=O)cc34)CC2)c(F)c1 [LFA1011, N-[5-[4-[(3-fluoro-5-methyl-2-pyridyl)amino]cyclohexoxy]-7-morpholino-1,6-naphthyridin-3-yl]methanesulfonamide]"
13,< 0.1 µM,Cc1ccncc1N[C@H]1CC[C@@H](Oc2nc(N3CCOCC3)cc3ncc(NS(C)(=O)=O)cc23)CC1 [LFA1012]
14,0.1 to 1 µM,"COc1cncc(N[C@H]2CC[C@@H](Oc3nc(N4CCOCC4)cc4ncc(NS(C)(=O)=O)cc34)CC2)c1 [LFA1013, N-[5-[4-[(5-methoxy-3-pyridyl)amino]cyclohexoxy]-7-morpholino-1,6-naphthyridin-3-yl]methanesulfonamide]"
15,< 0.1 µM,"CS(=O)(=O)Nc1cnc2cc(N3CCOCC3)nc(O[C@H]3CC[C@@H](Nc4ccncc4Br)CC3)c2c1 [LFA1014, N-[5-[4-[(3-bromo-4-pyridyl)amino]cyclohexoxy]-7-morpholino-1,6-naphthyridin-3-yl]methanesulfonamide]"
16,< 0.1 µM,"Cc1ncccc1N[C@H]1CC[C@@H](Oc2nc(N3CCOCC3)cc3ncc(NS(C)(=O)=O)cc23)CC1 [LFA1015, N-[5-[4-[(2-methyl-3-pyridyl)amino]cyclohexoxy]-7-morpholino-1,6-naphthyridin-3-yl]methanesulfonamide]"
17,< 0.1 µM,"COc1ccncc1N[C@H]1CC[C@@H](Oc2nc(N3CCOCC3)cc3ncc(NS(C)(=O)=O)cc23)CC1 [LFA1016, N-[5-[4-[(4-methoxy-3-pyridyl)amino]cyclohexoxy]-7-morpholino-1,6-naphthyridin-3-yl]methanesulfonamide]"
18,0.1 to 1 µM,"Cc1ccc(N[C@H]2CC[C@@H](Oc3nc(N4CCOCC4)cc4ncc(NS(C)(=O)=O)cc34)CC2)cn1 [LFA1017, N-[5-[4-[(6-methyl-3-pyridyl)amino]cyclohexoxy]-7-morpholino-1,6-naphthyridin-3-yl]methanesulfonamide]"
19,< 0.1 µM,"Cc1nc(N[C@H]2CC[C@@H](Oc3nc(N4CCOCC4)cc4ncc(NS(C)(=O)=O)cc34)CC2)ccc1F [LFA1018, N-[5-[4-[(5-fluoro-6-methyl-2-pyridyl)amino]cyclohexoxy]-7-morpholino-1,6-naphthyridin-3-yl]methanesulfonamide]"
20,< 0.1 µM,"Cc1ccc(N[C@H]2CC[C@@H](Oc3nc(N4CCOCC4)cc4ncc(NS(C)(=O)=O)cc34)CC2)nc1 [LFA1019, N-[5-[4-[(5-methyl-2-pyridyl)amino]cyclohexoxy]-7-morpholino-1,6-naphthyridin-3-yl]methanesulfonamide]"
21,< 0.1 µM,"CS(=O)(=O)Nc1cnc2cc(N3CCOCC3)nc(O[C@H]3CC[C@@H](Nc4cccnn4)CC3)c2c1 [LFA1020, N-[7-morpholino-5-[4-(pyridazin-3-ylamino)cyclohexoxy]-1,6-naphthyridin-3-yl]methanesulfonamide]"
22,< 0.1 µM,"CS(=O)(=O)Nc1cnc2cc(N3CCOCC3)nc(O[C@H]3CC[C@@H](Nc4ccc(C(F)(F)F)cn4)CC3)c2c1 [LFA1021, N-[7-morpholino-5-[4-[[5-(trifluoromethyl)-2-pyridyl]amino]cyclohexoxy]-1,6-naphthyridin-3-yl]methanesulfonamide]"
23,< 0.1 µM,"CS(=O)(=O)Nc1cnc2cc(N3CCOCC3)nc(O[C@H]3CC[C@@H](Nc4ccc(C#N)cn4)CC3)c2c1 [LFA1022, N-[5-[4-[(5-cyano-2-pyridyl)amino]cyclohexoxy]-7-morpholino-1,6-naphthyridin-3-yl]methanesulfonamide]"
24,< 0.1 µM,"CS(=O)(=O)Nc1cnc2cc(N3CCOCC3)nc(O[C@H]3CC[C@@H](Nc4ccc(C#N)nn4)CC3)c2c1 [LFA1023, N-[5-[4-[(6-cyanopyridazin-3-yl)amino]cyclohexoxy]-7-morpholino-1,6-naphthyridin-3-yl]methanesulfonamide]"
25,< 0.1 µM,"CS(=O)(=O)Nc1cnc2cc(N3CCOCC3)nc(O[C@H]3CC[C@@H](Nc4ncc(F)cc4F)CC3)c2c1 [LFA1024, N-[5-[4-[(3,5-difluoro-2-pyridyl)amino]cyclohexoxy]-7-morpholino-1,6-naphthyridin-3-yl]methanesulfonamide]"
